Results reported in patent publication US20240327376A1, “PICOLINAMIDE COMPOUNDS AS SELECTIVE PHD1 INHIBITORS, COMPOSITIONS, AND METHODS OF USE” (Akebia Therapeutics, Inc., priority 2021, published 2024).

Biological target: T1, full-length human PHD1 (selectivity versus full-length human PHD2) (Homo sapiens, UniProt Q96KS0)
T1 construct: purchased Active Motif (Carlsbad, CA, USA) 81064; host or cells: baculovirus expression system
Assay: TR-FRET assay of PHD enzymes (IC50; Ki by Cheng-Prusoff; selectivity as ratio of Kis)
Format: biochemical
Settings: ratio of Kis in the PHD1 and PHD2 TR-FRET assays; Ki=IC50/(1+[2-OG]/Km), 1 uM 2-OG
From the text: Time-resolved fluorescence resonance energy transfer (TR-FRET) assay was utilized to determine the enzymatic half maximal inhibitory concentration (IC50) value of PHD inhibitors against the full-length human prolyl-4-hydroxylase domain (PHD) enzymes, PHD1 and PHD2. The TR-FRET assay was developed based on the specific binding of hydroxylated HIF-1α peptide with the complex formed by VHL, EloB and EloC (VBC), to generate a fluorescent signal. Terbium (Tb)-Donor (monoclonal antibody anti-6His-Tb-cryptate Gold) and D2-acceptor (streptavidin [SA]-D2) of TR-FRET are linked to the VBC complex and to HIF-1a peptide, respectively. The VBC complex binds specifically to the HIF-1a peptide when it is hydroxylated, allowing energy transfer from TR-FRET donor to acceptor (FIG. 1).
TR-FRET Reagents. Monoclonal antibody anti-6His-Tb-cryptate Gold (catalog #61HI2TLA) and streptavidin (SA)-D2 (catalog #610SADLA) were purchased from CisBio International (Bedford, MA, USA).
N-terminus biotinylated HIF-1α C35 synthetic peptide representing amino acids 547 to 581 and including the proline 564 PHD2 hydroxylation site was purchased from California Peptide Research (Salt Lake City, UT, USA).
VBC complex. His-tagged recombinant VHL protein, EloB, EloC complex (His-VBC) was supplied by Axxam (Milan, Italy). Recombinant human VHL (National Center for Biotechnology Information [NCBI] accession number NP_00542.1) contained a His tag at the C-terminus of amino acids 55 to 213 and is referred to as VHL-His. VHL-His was co-expressed in E. coli with full-length human EloB (NCBI accession number Q15370.1) and full-length human EloC (NCBI accession number Q15369.1) and purified by affinity chromatography on a nickel-nitrilotriacetic acid (Ni-NTA) column as the His-VBC complex. Purity (˜80%) was assessed by sodium dodecyl sulfate polyacrylamide gel electrophoresis (SDS-PAGE).
PHD1. Recombinant human PHD1 protein (catalog #81064, Lot #24717001) was purchased from Active Motif (Carlsbad, CA, USA). PHD1 was expressed in a baculovirus expression system as the full-length protein (NCBI accession number NP_542770.2) with an N-terminal FLAG tag (molecular weight 44.9 kDa). Purity (>90%) was assessed by SDS-PAGE.
PHD2. The full-length human PHD2 enzyme was produced with a baculovirus infected insect cell (BIIC) expression system by Beryllium (Bedford, MA, USA). The PHD2 construct contained amino acids 1 to 426 of PHD2 (UniProt Knowledgebase[UniProtKB]/Swiss-Prot accession number Q9GZT9.1), and a His tag and a Tobacco Etch Virus (TEV) protease cleavage site at the N-terminus. The construct was expressed in Sf9 insect cells, purified by Ni-NTA column and digested with TEV protease to remove the His tag.
TR-FRET Assay Procedure. PHD inhibitor compound was preincubated with PHD enzyme in a 10 μL reaction volume in white 384-well Optiplate microplates (catalog #6007290, Perkin Elmer, Waltham, MA, USA). For this, 5 μL of PHD inhibitor compound was serially diluted with dilution buffer (50 mM HEPES [4-(2-hydroxyethyl)-1-piperazineethanesulfonic acid] pH 7.5, 50 mM sodium chloride [NaCl], 0.01% Tween-20, 0.01% purified bovine serum albumin [BSA]) and mixed with 5 μL PHD enzyme mix prepared as a 4× concentrate in the dilution buffer containing PHD enzyme (60 nM PHD1, 20 nM PHD2, 140 nM PHD3), 40 μM ferrous ammonium sulfate (FAS), 4 mM sodium (Na) ascorbate. The plates were incubated for 30 minutes at room temperature without rotation.
Five microliters of the VBC/anti-6His-Tb-cryptate Gold mix prepared as a 4× concentrate in dilution buffer containing 20 nM His-VBC, 1.32 nM monoclonal antibody anti-6His-Tb-cryptate Gold was then added. This step was followed immediately by the addition of […] of the HIF-1a C35 substrate mix prepared as a 4× concentrate in the dilution buffer containing 120 nM biotin-labeled HIF-1a C35, 132 nM SA-D2, 4 μM 2-oxoglutarate (2-OG) to reach a final reaction volume of 20 μL. […]

T1 sequence (Q96KS0 whole entry): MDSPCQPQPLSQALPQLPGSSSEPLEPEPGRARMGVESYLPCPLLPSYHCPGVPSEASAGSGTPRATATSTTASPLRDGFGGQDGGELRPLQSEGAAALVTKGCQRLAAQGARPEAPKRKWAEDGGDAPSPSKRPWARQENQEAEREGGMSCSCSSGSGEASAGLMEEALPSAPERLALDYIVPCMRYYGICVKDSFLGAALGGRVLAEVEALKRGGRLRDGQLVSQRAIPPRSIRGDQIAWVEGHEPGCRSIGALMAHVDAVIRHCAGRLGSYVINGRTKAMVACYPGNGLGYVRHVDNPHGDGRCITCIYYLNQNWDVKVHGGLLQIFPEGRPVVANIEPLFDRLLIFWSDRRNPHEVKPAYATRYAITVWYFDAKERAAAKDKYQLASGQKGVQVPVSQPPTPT

O=C(NCC1(C(=O)O)CCC1)c1ncc(-c2cccc(Cl)c2)cc1O [Compound 4, 1-((5-(3-chlorophenyl)-3-hydroxypicolinamido)methyl)cyclobutane-1-carboxylic acid]
Selectivity of PHD1 over PHD2: ~6 fold

O=C(NCC1(C(=O)O)CC1)c1ncc(-c2cccc(Cl)c2)cc1O [Compound 3, 1-((5-(3-chlorophenyl)-3-hydroxypicolinamido)methyl)cyclopropane-1-carboxylic acid]
Selectivity of PHD1 over PHD2: ~338 fold

O=C(O)CC1(NC(=O)c2ncc(-c3cnn(-c4ccccc4)c3)cc2O)CC1 [Compound 15, 2-(1-(3-hydroxy-5-(1-phenyl-1H-pyrazol-4-yl)picolinamido)cyclopropyl)acetic acid]
Selectivity of PHD1 over PHD2: ~10 fold

O=C(NCC1(C(=O)O)CCOCC1)c1ncc(-c2cnn(-c3ccccc3)c2)cc1O [Compound 14, 4-((3-hydroxy-5-(1-phenyl-1H-pyrazol-4-yl)picolinamido)methyl)tetrahydro-2H-pyran-4-carboxylic acid]
Selectivity of PHD1 over PHD2: ~51 fold

O=C(NCC1(C(=O)O)CCC1)c1ncc(-c2cnn(-c3ccccc3)c2)cc1O [Compound 12, 1-((3-hydroxy-5-(1-phenyl-1H-pyrazol-4-yl)picolinamido)methyl)cyclobutane-1-carboxylic acid]
Selectivity of PHD1 over PHD2: ~36 fold

O=C(NCC1(C(=O)O)CCC1)c1ncc(-c2ccc3ccccc3c2)cc1O [Compound 2, 1-((3-hydroxy-5-(naphthalen-2-yl)picolinamido)methyl)cyclobutane-1-carboxylic acid]
Selectivity of PHD1 over PHD2: ~1258 fold

O=C(NCC1(C(=O)O)CCCC1)c1ncc(-c2cnn(-c3ccccc3)c2)cc1O [Compound 17, 1-((3-hydroxy-5-(1-phenyl-1H-pyrazol-4-yl)picolinamido)methyl)cyclopentane-1-carboxylic acid]
Selectivity of PHD1 over PHD2: ~8 fold

O=C(NCC1(C(=O)O)CCCCC1)c1ncc(-c2cnn(-c3ccccc3)c2)cc1O [Compound 13, 1-((3-hydroxy-5-(1-phenyl-1H-pyrazol-4-yl)picolinamido)methyl)cyclohexane-1-carboxylic acid]
Selectivity of PHD1 over PHD2: ~2 fold

O=C(NCC1(C(=O)O)CC1)c1ncc(-c2cnn(-c3ccccc3)c2)cc1O [Compound 5, 1-((3-hydroxy-5-(1-phenyl-1H-pyrazol-4-yl)picolinamido)methyl)cyclopropane-1-carboxylic acid]
Selectivity of PHD1 over PHD2: ~61 fold

O=C(NCC1(C(=O)O)CC1)c1ncc(-c2ccc3ccccc3c2)cc1O [Compound 1, 1-((3-hydroxy-5-(naphthalen-2-yl)picolinamido)methyl)cyclopropane-1-carboxylic acid]
Selectivity of PHD1 over PHD2: ~219 fold

O=C(NC[C@@H](O)C(=O)O)c1ncc(-c2cccc(Cl)c2)cc1O [Compound 9, (R)-3-(5-(3-chlorophenyl)-3-hydroxypicolinamido)-2-hydroxypropanoic acid]
Selectivity of PHD1 over PHD2: ~13 fold

O=C(NC[C@@H](O)C(=O)O)c1ncc(-c2ccc3ccccc3c2)cc1O [Compound 8, (R)-2-hydroxy-3-(3-hydroxy-5-(naphthalen-2-yl)picolinamido)propanoic acid]
Selectivity of PHD1 over PHD2: ~100 fold

O=C(NC[C@H](O)C(=O)O)c1ncc(-c2ccc3ccccc3c2)cc1O [Compound 7, (S)-2-hydroxy-3-(3-hydroxy-5-(naphthalen-2-yl)picolinamido)propanoic acid]
Selectivity of PHD1 over PHD2: ~16 fold

O=C(NC[C@@H](O)C(=O)O)c1ncc(-c2cnn(-c3ccccc3)c2)cc1O [Compound 11, (R)-2-hydroxy-3-(3-hydroxy-5-(1-phenyl-1H-pyrazol-4-yl)picolinamido)propanoic]
Selectivity of PHD1 over PHD2: ~42 fold

O=C(NC[C@H](O)C(=O)O)c1ncc(-c2cnn(-c3ccccc3)c2)cc1O [Compound 10, (S)-2-hydroxy-3-(3-hydroxy-5-(1-phenyl-1H-pyrazol-4-yl)picolinamido)propanoic acid]
Selectivity of PHD1 over PHD2: ~29 fold

O=C(NC[C@H](O)C(=O)O)c1ncc(-c2cccc(Cl)c2)cc1O [Compound 6, (S)-3-(5-(3-chlorophenyl)-3-hydroxypicolinamido)-2-hydroxypropanoic acid]
Selectivity of PHD1 over PHD2: ~11 fold

O=C(O)CC1(NC(=O)c2ncc(-c3cnn(-c4ccccc4)c3)cc2O)CCC1 [Compound 16, 2-(1-(3-hydroxy-5-(1-phenyl-1H-pyrazol-4-yl)picolinamido)cyclobutyl)acetic acid]
Selectivity of PHD1 over PHD2: ~2 fold
